Reference: DBAASP
Values after ≈ are worked out from the molar mass of the structure shown.

Experiments:
Test in all cases: ≥ marks a high value that may be exact or a test limit, other limits are often not marked, values filed in µg/mL are converted to µM
[1] = test system: Pseudomonas syringae pv. syringae EPS 94
[2] = test system: Xanthomonas campestris pv. Vesicatoria 2133-2
[3] = test system: Erwinia amylovora PMV 6076
[4] = test system: Pseudomonas aeruginosa ATCC 10145
[5] = test system: Escherichia coli ATCC 2592
[6] = test system: Candida albicans ATCC 10231
[7] = test system: Cryptococcus neoformans ATCC 32045
[8] = test system: Staphylococcus aureus ATCC 33591
Escherichia coli K88 = test system: Escherichia coli K88
[9] = test system: Staphylococcus epidermidis ATCC 12228
[10] = test system: Staphylococcus aureus ATCC 25923
[11] = test system: Pseudomonas aeruginosa ATCC 27853
[12] = test system: Candida parapsilosis CGMCC 2.3989
[13] = test system: Candida albicans CGMCC 2.2086
[14] = test system: Salmonella enterica subsp. enterica serovar Pullorum ATCC 7913
Escherichia coli 078 = test system: Escherichia coli 078
[15] = test system: Candida tropicalis CGMCC 2.1975
[16] = test system: Staphylococcus aureus ATCC 29213
[17] = test system: Salmonella enterica subsp. enterica serovar Typhimurium C77-31
Escherichia coli K99 = test system: Escherichia coli K99
Escherichia coli UB1005 = test system: Escherichia coli UB1005
[18] = test system: Staphylococcus aureus ATCC 43300
[19] = test system: Salmonella enterica subsp. enterica serovar Typhimurium ATCC 14028
[20] = test system: Staphylococcus epidermidis ATCC 35984
[21] = test system: Escherichia coli K12 MG1655

SMILES	MIC [1]	MIC [2]	MIC [3]	MIC [8]	MIC (Escherichia coli K88)	MIC [9]	MIC [10]	MIC [11]	MIC [12]	MIC [13]	MIC [14]	MIC (Escherichia coli 078)	MIC [15]	MIC [17]	MIC (Escherichia coli K99)	MIC (Escherichia coli UB1005)	MIC [18]	MIC [19]	other results
CC(C)C[C@H](NC(=O)[C@H](CCC(=O)O)NC(=O)[C@H](CC(=O)O)NC(=O)[C@H](CCCCN)NC(=O)[C@H](CC(C)C)NC(=O)[C@H](Cc1cnc[nH]1)NC(=O)[C@H](CCC(=O)O)NC(=O)[C@H](Cc1c[nH]c2ccccc12)NC(=O)[C@H](CC(=O)O)NC(=O)[C@H](CCCCN)NC(=O)[C@H](CC(C)C)NC(=O)[C@H](Cc1cnc[nH]1)NC(=O)[C@H](CCC(=O)O)NC(=O)[C@H](Cc1c[nH]c2ccccc12)NC(=O)[C@H](CC(=O)O)NC(=O)[C@H](CCCCN)NC(=O)[C@H](CC(C)C)NC(=O)[C@H](Cc1cnc[nH]1)NC(=O)[C@H](CCC(=O)O)NC(=O)[C@H](Cc1c[nH]c2ccccc12)NC(=O)[C@H](CC(=O)O)NC(=O)[C@@H](N)CCCCN)C(=O)O [KDWEHLKDWEHLKDWEHLKDEL]	≥ 100 µM	≥ 100 µM	≥ 100 µM	–	–	–	–	–	–	–	–	–	–	–	–	–	–	–	–
CC[C@H](C)[C@H](NC(=O)[C@H](CCCCN)NC(=O)[C@H](C)NC(=O)[C@H](C)N)C(=O)N[C@H](C(=O)N[C@@H](CC(C)C)C(=O)N[C@@H](CC(N)=O)C(=O)N1CCC[C@H]1C(=O)N[C@@H](CCCCN)C(=O)N[C@@H](Cc1ccccc1)C(=O)N[C@@H](CCCN=C(N)N)C(=O)N[C@H]1CSSC[C@@H](C(N)=O)NC(=O)[C@H](Cc2ccccc2)NC(=O)[C@H](C)NC(=O)[C@H](C)NC(=O)[C@H](CCCCN)NC1=O)[C@@H](C)CC [AAKIILNPKFRCKAAFC]	–	–	–	–	≥ 32 µM	> 128 µM	64 µM (≈ 121 µg/mL)	> 128 µM	≥ 128 µM	≥ 128 µM	≥ 64 µM	≥ 128 µM	≥ 128 µM	≥ 128 µM	≥ 32 µM	≥ 64 µM	> 128 µM	64 µM (≈ 121 µg/mL)	MIC [16]: > 128 µM
CC[C@H](C)[C@H](N)C(=O)NCC(=O)N[C@@H](CCCCN)C(=O)N[C@@H](Cc1ccccc1)C(=O)N[C@@H](CC(C)C)C(=O)N[C@@H](CCCCN)C(=O)N[C@@H](CCCCN)C(=O)N[C@@H](C)C(=O)N[C@@H](CCCCN)C(=O)N[C@@H](CCCCN)C(=O)N[C@@H](Cc1ccccc1)C(=O)NCC(=O)N[C@@H](CCCCN)C(=O)N[C@@H](C)C(=O)N[C@@H](Cc1ccccc1)C(=O)N[C@H](C(=O)N[C@@H](CCCCN)C(N)=O)C(C)C [IGKFLKKAKKFGKAFVK]	–	–	–	≥ 264 µM	–	–	> 264 µM	2.92 µM (≈ 5.65 µg/mL)	–	–	–	–	–	–	–	–	–	–	MIC [20]: 11.7 µM (≈ 22.6 µg/mL)
CC[C@H](C)[C@H](NC(=O)[C@H](CCCN=C(N)N)NC(=O)[C@H](C)NC(=O)[C@H](C)N)C(=O)N[C@H](C(=O)N[C@@H](CC(C)C)C(=O)N[C@@H](CCCN=C(N)N)C(=O)N1CCC[C@H]1C(=O)N[C@@H](CCCN=C(N)N)C(=O)N[C@@H](Cc1ccccc1)C(=O)N[C@@H](CCCN=C(N)N)C(N)=O)[C@@H](C)CC [AARIILRPRFR]	–	–	–	–	16 µM (≈ 21.9 µg/mL)	> 128 µM	> 128 µM	> 128 µM	≥ 128 µM	≥ 128 µM	16 µM (≈ 21.9 µg/mL)	8 µM (≈ 10.9 µg/mL)	≥ 128 µM	16 µM (≈ 21.9 µg/mL)	16 µM (≈ 21.9 µg/mL)	8 µM (≈ 10.9 µg/mL)	> 128 µM	16 µM (≈ 21.9 µg/mL)	MIC [16]: > 128 µM
CC(C)C[C@H](NC(=O)[C@H](CCCCN)NC(=O)[C@@H](N)CCCN=C(N)N)C(=O)N[C@@H](C)C(=O)N[C@@H](Cc1ccccc1)C(=O)N[C@@H](CCCCN)C(=O)N1CCC[C@H]1C(=O)N[C@@H](CC(C)C)C(=O)N[C@@H](CCCCN)C(=O)N[C@@H](CCCCN)C(=O)N[C@@H](Cc1ccccc1)C(=O)N[C@@H](Cc1ccccc1)C(=O)N[C@@H](CO)C(=O)N[C@@H](Cc1c[nH]c2ccccc12)C(=O)N[C@@H](CCCCN)C(=O)N[C@@H](CO)C(=O)O [RKLAFKPLKKFFSWKS]	–	–	–	–	–	–	–	–	–	–	–	–	–	–	–	–	–	–	MIC [21]: 7.95 µM (≈ 16 µg/mL)
CC[C@H](C)[C@H](NC(=O)[C@H](CCCN=C(N)N)NC(=O)[C@H](C)NC(=O)[C@H](C)N)C(=O)N[C@H](C(=O)N[C@@H](CC(C)C)C(=O)N[C@@H](CCCN=C(N)N)C(=O)N[C@@H](Cc1ccc(O)cc1)C(=O)N[C@@H](CCCN=C(N)N)C(=O)N[C@@H](Cc1ccccc1)C(=O)N[C@@H](CCCN=C(N)N)C(N)=O)[C@@H](C)CC [AARIILRYRFR]	–	–	–	–	4 µM (≈ 5.74 µg/mL)	2 µM (≈ 2.87 µg/mL)	8 µM (≈ 11.5 µg/mL)	16 µM (≈ 22.9 µg/mL)	≥ 64 µM	≥ 128 µM	4 µM (≈ 5.74 µg/mL)	4 µM (≈ 5.74 µg/mL)	16 µM (≈ 22.9 µg/mL)	4 µM (≈ 5.74 µg/mL)	4 µM (≈ 5.74 µg/mL)	4 µM (≈ 5.74 µg/mL)	4 µM (≈ 5.74 µg/mL)	8 µM (≈ 11.5 µg/mL)	–

Further lines, with some results ahead:

MIC [1]	MIC [2]	MIC [3]	MIC [8]	MIC (Escherichia coli K88)	MIC [9]	MIC [10]	MIC [11]	MIC [12]	MIC [13]	MIC [14]	MIC (Escherichia coli 078)	MIC [15]	MIC [17]	MIC (Escherichia coli K99)	MIC (Escherichia coli UB1005)	MIC [18]	MIC [19]	SMILES	other results
–	–	–	≥ 85.8 µM	–	–	–	–	–	–	–	–	–	–	–	–	–	–	CC(C)C[C@H](NC(=O)[C@H](CCCCN)NC(=O)[C@H](CC(C)C)NC(=O)[C@H](CCCCN)NC(=O)[C@H](CC(C)C)NC(=O)[C@H](CCCCN)NC(=O)[C@H](CC(C)C)NC(=O)[C@H](CCCCN)NC(=O)[C@H](CC(C)C)NC(=O)[C@H](CCCCN)NC(=O)[C@H](CC(C)C)NC(=O)[C@H](CCCCN)NC(=O)[C@H](CC(C)C)NC(=O)[C@H](CCCCN)NC(=O)[C@H](CC(C)C)NC(=O)[C@H](CCCCN)NC(=O)[C@H](CC(C)C)NC(=O)[C@H](CCCCN)NC(=O)[C@H](CC(C)C)NC(=O)[C@H](CCCCN)NC(=O)[C@H](CC(C)C)NC(=O)[C@H](CCCCN)NC(=O)[C@@H](N)CC(C)C)C(=O)N[C@@H](CCCCN)C(=O)O [LKLKLKLKLKLKLKLKLKLKLKLK]	MIC [4]: 15.4 µM (≈ 45 µg/mL); MIC [5]: 30.2 µM (≈ 88 µg/mL); MIC [6]: 121 µM (≈ 354 µg/mL); MIC [7]: 15.3 µM (≈ 44.5 µg/mL)
1.77 µM (≈ 4.81 µg/mL)	1.77 µM (≈ 4.81 µg/mL)	3.54 µM (≈ 9.61 µg/mL)	–	–	–	–	–	–	–	–	–	–	–	–	–	–	–	CC[C@H](C)[C@H](NC(=O)[C@H](CCCCN)NC(=O)[C@H](CCCCN)NC(=O)[C@H](Cc1ccccc1)NC(=O)[C@H](CC(C)C)NC(=O)[C@H](CCCCN)NC(=O)[C@@H](N)CCCCN)C(=O)N[C@@H](CC(C)C)C(=O)N[C@@H](CCCCN)C(=O)N[C@@H](Cc1ccc(O)cc1)C(=O)N[C@@H](CC(C)C)C(=O)N[C@@H](CCCCN)C(=O)N[C@@H](Cc1ccccc1)C(=O)N[C@@H](CC(C)C)C(=O)N[C@@H](Cc1cnc[nH]1)C(=O)N[C@@H](CO)C(=O)N[C@@H](C)C(=O)N[C@@H](CCCCN)C(=O)N[C@@H](CCCCN)C(=O)N[C@@H](CC(=O)O)C(=O)N[C@@H](CCC(=O)O)C(=O)N[C@@H](CC(C)C)C(=O)O [KKLFKKILKYLKFLHSAKKDEL]	–
–	–	–	≥ 130 µM	–	–	–	–	–	–	–	–	–	–	–	–	–	–	C[C@H](NC(=O)[C@H](Cc1ccccc1)NC(=O)[C@H](CCCCN)NC(=O)[C@H](CCCCN)NC(=O)[C@H](C)NC(=O)[C@H](Cc1ccccc1)NC(=O)[C@H](CCCCN)NC(=O)[C@H](CCCCN)NC(=O)[C@H](C)NC(=O)[C@H](Cc1ccccc1)NC(=O)[C@H](CCCCN)NC(=O)[C@H](CCCCN)NC(=O)[C@H](C)NC(=O)[C@H](Cc1ccccc1)NC(=O)[C@@H](N)CCCCN)C(=O)N[C@@H](CCCCN)C(=O)O [KFAKKFAKKFAKKFAK]	MIC [4]: ≥ 65.2 µM; MIC [5]: ≥ 45.9 µM; MIC [6]: 55.3 µM (≈ 106 µg/mL); MIC [7]: 3.62 µM (≈ 6.93 µg/mL)
1.77 µM (≈ 4.47 µg/mL)	3.54 µM (≈ 8.95 µg/mL)	3.54 µM (≈ 8.95 µg/mL)	–	–	–	–	–	–	–	–	–	–	–	–	–	–	–	CC[C@H](C)[C@H](NC(=O)[C@H](CCCCN)NC(=O)[C@H](CCCCN)NC(=O)[C@H](Cc1ccccc1)NC(=O)[C@H](CC(C)C)NC(=O)[C@H](CCCCN)NC(=O)[C@@H](N)CCCCN)C(=O)N[C@@H](CC(C)C)C(=O)N[C@@H](CCCCN)C(=O)N[C@@H](Cc1ccc(O)cc1)C(=O)N[C@@H](CC(C)C)C(=O)N[C@@H](C)C(=O)NCC(=O)N1CCC[C@H]1C(=O)N[C@@H](C)C(=O)N[C@@H](CCCCN)C(=O)N[C@@H](Cc1ccccc1)C(=O)N[C@@H](CC(C)C)C(=O)N[C@@H](Cc1cnc[nH]1)C(=O)N[C@@H](CO)C(=O)N[C@@H](C)C(=O)N[C@@H](CCCCN)C(=O)O [KKLFKKILKYLAGPAKFLHSAK]	–
